Measurements published in patent US10582709B2, “Butyrolactones as herbicides” (FMC Corporation, priority 2015, dated 2020).

What was measured:
Assay type in all cases: in vivo
[1] = tested on: ryegrass, Italian (Italian ryegrass, Lolium multiflorum); assay: Test A postemergence, Italian ryegrass; details: visual rating after approx. 10 d, 0 to 100 scale, 0 no effect, 100 complete control
Text: (§1) Seeds of plant species selected from barnyardgrass (Echinochloa crus-galli), crabgrass (large crabgrass, Digitaria sanguinalis), kochia (Kochia scoparia), ragweed (common ragweed, Ambrosia elatior), morningglory (Ipomoea spp.), velvetleaf (Abutilon theophrasti), ryegrass, Italian (Italian ryegrass, Lolium multiflorum), foxtail, giant (giant foxtail, Setaria faberii), wheat (Triticum aestivum), corn (Zea mays), and pigweed (Amaranthus retroflexus), were planted into a blend of loam soil and sand and treated preemergence with a directed soil spray using test chemicals formulated in a non-phytotoxic solvent mixture which included a surfactant. At the same time, plants selected from these crop and weed species and also blackgrass (Alopecurus myosuroides), and galium (catchweed bedstraw, Galium aparine), were planted in pots containing the same blend of loam soil and sand and treated with postemergence applications of test chemicals formulated in the same manner. Plants ranged in height from 2 to 10 cm and were in the one- to two-leaf stage for the postemergence treatment. Treated plants and untreated controls were maintained in a greenhouse for approximately 10 d, after which time all treated plants were compared to untreated controls and visually evaluated for injury. Plant response ratings, summarized in Table A, are based on a 0 to 100 scale where 0 is no effect and 100 is complete control. A dash (-) response means no test result.

[2] = tested on: ryegrass, Italian (Italian ryegrass, Lolium multiflorum); assay: Test A preemergence, Italian ryegrass; details: visual rating after approx. 10 d, 0 to 100 scale, 0 no effect, 100 complete control
Text: as §1

[3] = tested on: foxtail, giant (giant foxtail, Setaria faberii); assay: Test A preemergence, giant foxtail; details: visual rating after approx. 10 d, 0 to 100 scale, 0 no effect, 100 complete control
Text: as §1

kochia (Kochia scoparia) [4] = assay: Test A preemergence, kochia; details: visual rating after approx. 10 d, 0 to 100 scale, 0 no effect, 100 complete control
Text: as §1

[5] = tested on: ragweed (common ragweed, Ambrosia elatior); assay: Test A preemergence, ragweed; details: visual rating after approx. 10 d, 0 to 100 scale, 0 no effect, 100 complete control
Text: as §1

[6] = tested on: barnyardgrass (Echinochloa crus-galli); assay: Test A postemergence, barnyardgrass; details: visual rating after approx. 10 d, 0 to 100 scale, 0 no effect, 100 complete control
Text: as §1

[7] = tested on: foxtail, giant (giant foxtail, Setaria faberii); assay: Test A postemergence, giant foxtail; details: visual rating after approx. 10 d, 0 to 100 scale, 0 no effect, 100 complete control
Text: as §1

[8] = tested on: blackgrass (Alopecurus myosuroides); assay: Test A postemergence, blackgrass; details: visual rating after approx. 10 d, 0 to 100 scale, 0 no effect, 100 complete control
Text: as §1

[9] = tested on: sedge, umbrella (small-flower umbrella sedge, Cyperus difformis); assay: Test B flooded paddy test, umbrella sedge; details: 500 g ai/ha; applied to paddy water at 2-leaf stage; 13 to 15 d; scale 0 no effect to 100 complete control
Protocol: (§2) Plant species in the flooded paddy test selected from rice (Oryza sativa), sedge, umbrella (small-flower umbrella sedge, Cyperus difformis), ducksalad (Heteranthera limosa), and barnyardgrass (Echinochloa crus-galli) were grown to the 2-leaf stage for testing. At time of treatment, test pots were flooded to 3 cm above the soil surface, treated by application of test compounds directly to the paddy water, and then maintained at that water depth for the duration of the test. Treated plants and controls were maintained in a greenhouse for 13 to 15 d, after which time all species were compared to controls and visually evaluated. Plant response ratings, summarized in Table B, are based on a scale of 0 to 100 where 0 is no effect and 100 is complete control. A dash (-) response means no test result.

rice (Oryza sativa) = assay: Test B flooded paddy test, rice; details: 500 g ai/ha; applied to paddy water at 2-leaf stage; 13 to 15 d; scale 0 no effect to 100 complete control
Protocol: as §2

[10] = tested on: ducksalad (Heteranthera limosa); assay: Test B flooded paddy test, ducksalad; details: 500 g ai/ha; applied to paddy water at 2-leaf stage; 13 to 15 d; scale 0 no effect to 100 complete control
Protocol: as §2

[11] = tested on: pigweed (Amaranthus retroflexus); assay: Test A preemergence, pigweed; details: visual rating after approx. 10 d, 0 to 100 scale, 0 no effect, 100 complete control
Text: as §1

[12] = tested on: galium (catchweed bedstraw, Galium aparine); assay: Test A postemergence, galium; details: visual rating after approx. 10 d, 0 to 100 scale, 0 no effect, 100 complete control
Text: as §1

corn (Zea mays) = assay: Test A postemergence, corn; details: visual rating after approx. 10 d, 0 to 100 scale, 0 no effect, 100 complete control
Text: as §1

[13] = tested on: wheat (Triticum aestivum); assay: Test A postemergence, wheat; details: visual rating after approx. 10 d, 0 to 100 scale, 0 no effect, 100 complete control
Text: as §1

[14] = tested on: barnyardgrass (Echinochloa crus-galli); assay: Test B flooded paddy test, barnyardgrass; details: 500 g ai/ha; applied to paddy water at 2-leaf stage; 13 to 15 d; scale 0 no effect to 100 complete control
Protocol: as §2

kochia (Kochia scoparia) [15] = assay: Test A postemergence, kochia; details: visual rating after approx. 10 d, 0 to 100 scale, 0 no effect, 100 complete control
Text: as §1

[16] = tested on: ragweed (common ragweed, Ambrosia elatior); assay: Test A postemergence, ragweed; details: visual rating after approx. 10 d, 0 to 100 scale, 0 no effect, 100 complete control
Text: as §1

[17] = tested on: pigweed (Amaranthus retroflexus); assay: Test A postemergence, pigweed; details: visual rating after approx. 10 d, 0 to 100 scale, 0 no effect, 100 complete control
Text: as §1

[18] = tested on: barnyardgrass (Echinochloa crus-galli); assay: Test A preemergence, barnyardgrass; details: visual rating after approx. 10 d, 0 to 100 scale, 0 no effect, 100 complete control
Text: as §1

SMILES | Plant response rating, Ryegrass, Italian ([1]; 125 g ai/ha) | Plant response rating, Ryegrass, Italian ([1]; 500 g ai/ha) | Plant response rating, Ryegrass, Italian ([2]; 125 g ai/ha) | Plant response rating, Ryegrass, Italian ([2]; 500 g ai/ha) | Plant response rating, Foxtail, Giant ([3]; 125 g ai/ha) | Plant response rating, Foxtail, Giant ([3]; 500 g ai/ha) | Plant response rating, Kochia (kochia (Kochia scoparia) [4]; 125 g ai/ha) | Plant response rating, Kochia (kochia (Kochia scoparia) [4]; 500 g ai/ha) | Plant response rating, Ragweed ([5]; 125 g ai/ha) | Plant response rating, Ragweed ([5]; 500 g ai/ha) | Plant response rating, Barnyardgrass ([6]; 125 g ai/ha) | Plant response rating, Barnyardgrass ([6]; 500 g ai/ha) | Plant response rating, Foxtail, Giant ([7]; 125 g ai/ha) | Plant response rating, Foxtail, Giant ([7]; 500 g ai/ha) | Plant response rating, Blackgrass ([8]; 125 g ai/ha) | Plant response rating, Blackgrass ([8]; 500 g ai/ha) | Plant response rating, Flood, Sedge, Umbrella [9] | Plant response rating, Flood, Rice (rice (Oryza sativa)) | Plant response rating, Flood, Ducksalad [10] | Plant response rating, Pigweed ([11]; 125 g ai/ha) | other results
O=C(Nc1cccc(F)c1C(F)(F)F)C1C(=O)OCC1c1ccc(F)c(C(F)(F)F)c1 (racemic) [Compound 18] | 0 | 0 | 0 | 0 | 0 | 40 | 0 | 0 | 0 | 0 | 0 | 0 | 0 | 30 | 0 | 0 | 0 | 0 | 0 | 0 | Plant response rating, Pigweed ([11]; 500 g ai/ha): 0; Plant response rating, Galium ([12]; 125 g ai/ha): 0; Plant response rating, Galium ([12]; 500 g ai/ha): 0; Plant response rating, Corn (corn (Zea mays); 125 g ai/ha): 0; Plant response rating, Corn (corn (Zea mays); 500 g ai/ha): 0; Plant response rating, Wheat ([13]; 125 g ai/ha): 0; Plant response rating, Wheat ([13]; 500 g ai/ha): 0; Plant response rating, Flood, Barnyardgrass [14]: 0; Plant response rating, Kochia (kochia (Kochia scoparia) [15]; 125 g ai/ha): 0; Plant response rating, Kochia (kochia (Kochia scoparia) [15]; 500 g ai/ha): 0; Plant response rating, Ragweed ([16]; 125 g ai/ha): 0; Plant response rating, Ragweed ([16]; 500 g ai/ha): 0; Plant response rating, Pigweed ([17]; 125 g ai/ha): 0; Plant response rating, Pigweed ([17]; 500 g ai/ha): 0; Plant response rating, Barnyardgrass ([18]; 125 g ai/ha): 0; Plant response rating, Barnyardgrass ([18]; 500 g ai/ha): 0
O=C(Nc1ccccc1C(F)(F)F)C1C(=O)OCC1c1ccc(F)c(C(F)(F)F)c1 (racemic) [Compound 17] | 0 | 0 | 0 | 0 | 20 | 60 | 0 | 0 | 0 | 0 | 0 | 0 | 0 | 20 | 0 | 0 | 0 | 0 | 0 | 0 | Plant response rating, Pigweed ([11]; 500 g ai/ha): 0; Plant response rating, Galium ([12]; 125 g ai/ha): 0; Plant response rating, Galium ([12]; 500 g ai/ha): 0; Plant response rating, Corn (corn (Zea mays); 125 g ai/ha): 0; Plant response rating, Corn (corn (Zea mays); 500 g ai/ha): 0; Plant response rating, Wheat ([13]; 125 g ai/ha): 0; Plant response rating, Wheat ([13]; 500 g ai/ha): 0; Plant response rating, Flood, Barnyardgrass [14]: 0; Plant response rating, Kochia (kochia (Kochia scoparia) [15]; 125 g ai/ha): 0; Plant response rating, Kochia (kochia (Kochia scoparia) [15]; 500 g ai/ha): 0; Plant response rating, Ragweed ([16]; 125 g ai/ha): 0; Plant response rating, Ragweed ([16]; 500 g ai/ha): 0; Plant response rating, Pigweed ([17]; 125 g ai/ha): 0; Plant response rating, Pigweed ([17]; 500 g ai/ha): 0; Plant response rating, Barnyardgrass ([18]; 125 g ai/ha): 0; Plant response rating, Barnyardgrass ([18]; 500 g ai/ha): 0
